Laboratory results published in patent US20230174584A1, “Antibiotic Compounds” (priority 2019, published 2023).

Experiments:
[1] = Cytotoxicity assay for HepG2 (MTT); assay type: cell-based, human; details: human; MTT, HepG2, 24 h, 10% FBS, n = 3; read-out: AC50
Procedure: (§1) Mammalian cytotoxicity assays were performed by Cyprotex. Cytotoxicity was assessed using the MTT assay. Briefly, HepG2 human hepatocellular carcinoma cells (100 μL per well) were plated on black-walled clear-bottomed polystyrene 96-well tissue culture treated plates 24 h prior to dosing the cells. The cells were dosed with test compound (dissolved in 0.5% DMSO in growth media containing 10% FBS) at a range of concentrations (0.04 μM, 0.1 μM, 0.4 μM, 1 μM, 4 μM, 10 μM, 40 μM, 100 μM). After 23 h period the cells were loaded with the MTT dye (yellow; 3-(4,5-dimethyl-2-thiazolyl)-2,5-diphenyl-2H-tetrazolium bromide) followed by an additional 1 h incubation (resulting in a total incubation time with antibiotics of 24 h). Subsequently, the plates are dried and solubilized in DMSO followed by scanning at 570 nm using a microplate absorbance reader. Cell viability is determined by conversion of the soluble MTT to insoluble formazan (purple) by mitochondrial […] in live cells. Production of formazan indicates […]. Carbonyl cyanide 3-chlorophenylhydrazone is used as no response control and chlorpromazine is used as control known to be cytotoxic. Solvent control wells (0.5% DMSO in growth media containing 10% FBS) are then used to determine significance limits for wells that have a greater than expected fraction of low or high responders. The minimum effective concentration is determined from the lowest concentration whose mean value exceeds the significance level, provided either a clear dose-response relationship is observed, or at least two consecutive concentration points are above the significance level. AC50 values are also determined provided a clear dose-response relationship is observed. Experiment was performed in triplicates.

[2] = system: HepG2 human hepatocellular carcinoma cells; assay: Cytotoxicity assay for HepG2 (MTT); assay type: cell-based; details: MTT, HepG2, 24 h, 10% FBS
Procedure: as §1

[3] = system: S. aureus ATCC29213; assay: UDP-MurNAc-pentapeptide accumulation assay; assay type: cell-based, Staphylococcus aureus; details: S. aureus ATCC29213, 5 μM, 1 h
Procedure: An overnight culture of bacterial suspension (S. aureus ATCC29213, E. faecium E155, E. faecium E7314 and E. faecium E980) was diluted 100-fold in TSB supplemented with 0.002% p80 and cultured at 37° C. until the optical density of the suspension reached a level equivalent to the 0.5 McFarland standard. Chloramphenicol was added at a final concentration of 130 μg/mL and the culture was incubated for an additional 15 min at 37° C. […] The cultures were incubated at 37° C. for 1 h, after which they were centrifuged to pellet the bacteria. The supernatant was removed and the pellets were resuspended in 1 mL MQ-H2O. The samples were boiled at 100° C. for 15 minutes and subsequently centrifuged at 12000 rpm for 30 minutes. The supernatant of the samples was lyophilized and redissolved in 250 μL buffer A (50 mM ammonium bicarbonate, 5 mM NEt3, pH 8.3). Samples were analyzed by analytical RP-HPLC using a 0-25% buffer B (MeOH) gradient over 25 minutes.
An UDP-MurNAc-pentapeptide accumulation assay was performed to elucidate part of the mechanism of action of the compounds. UDP-MurNAc-pentapeptide is the last soluble precursor of peptidoglycan cell wall biosynthesis. In this assay, live cells accumulate this last soluble precursor when treated with compounds that interfere with the membrane bound stages of peptidoglycan biosynthesis (Sass, V. et al. Human beta-defensin 3 inhibits cell wall biosynthesis in Staphylococci. Infect. Immun. 78, 2793-2800 (2010)).

Structure (SMILES)	AC50 at 24 h [1] [µM]	accumulation of UDP-MurNAc-pentapeptide [3]	further results
CCCCCCCCCCNCCN[C@@]1(C)C[C@H](O[C@H]2[C@H](Oc3c4cc5cc3Oc3ccc(cc3Cl)[C@@H](O)[C@@H](NC(=O)[C@@H](CC(C)C)NC)C(=O)N[C@@H](CC(N)=O)C(=O)N[C@H]5C(=O)N[C@H]3C(=O)N[C@H](C(=O)N[C@H](C(=O)O)c5cc(O)c(CNCP(=O)(O)O)c(O)c5-c5cc3ccc5O)[C@H](O)c3ccc(c(Cl)c3)O4)O[C@H](CO)[C@@H](O)[C@@H]2O)O[C@@H](C)[C@H]1O [Telavancin, reference compound]	> 100		
CN[C@H](CC(C)C)C(=O)N[C@H]1C(=O)N[C@@H](CC(N)=O)C(=O)N[C@H]2C(=O)N[C@H]3C(=O)N[C@H](C(=O)N[C@H](C(=O)O)c4cc(O)cc(O)c4-c4cc3ccc4O)[C@H](O[C@H]3C[C@](C)(N)[C@@H](O)[C@H](C)O3)c3ccc(c(Cl)c3)Oc3cc2cc(c3O[C@@H]2O[C@H](CO)[C@@H](O)[C@H](O)[C@H]2O[C@H]2C[C@](C)(NCc3ccc(-c4ccc(Cl)cc4)cc3)[C@@H](O)[C@H](C)O2)Oc2ccc(cc2Cl)[C@H]1O [Oritavancin]	> 100		Direction of response (↑↓) [2]: ↓; MEC ([2]; n = 3): 76.5 µM
CCCCCCN(CCCCCC)C(N)=Nc1ccc(CN[C@@]2(C)C[C@H](O[C@H]3[C@H](Oc4c5cc6cc4Oc4ccc(cc4Cl)[C@@H](O)[C@@H](NC(=O)[C@@H](CC(C)C)NC)C(=O)N[C@@H](CC(N)=O)C(=O)N[C@H]6C(=O)N[C@H]4C(=O)N[C@H](C(=O)N[C@H](C(=O)O)c6cc(O)cc(O)c6-c6cc4ccc6O)[C@H](O)c4ccc(c(Cl)c4)O5)O[C@H](CO)[C@@H](O)[C@@H]3O)O[C@@H](C)[C@H]2O)cc1 [Compound 12]			AC50 ([2]; n = 3): > 100 µM
CN[C@H](CC(C)C)C(=O)N[C@H]1C(=O)N[C@@H](CC(N)=O)C(=O)N[C@H]2C(=O)N[C@H]3C(=O)N[C@H](C(=O)N[C@H](C(=O)O)c4cc(O)cc(O)c4-c4cc3ccc4O)[C@H](O)c3ccc(c(Cl)c3)Oc3cc2cc(c3O[C@@H]2O[C@H](CO)[C@@H](O)[C@H](O)[C@H]2O[C@H]2C[C@](C)(N)[C@H](O)[C@H](C)O2)Oc2ccc(cc2Cl)[C@H]1O [Vancomycin, reference compound]	> 100		
CCCCCCCCNC(N)=Nc1ccc(CN[C@@]2(C)C[C@H](O[C@H]3[C@H](Oc4c5cc6cc4Oc4ccc(cc4Cl)[C@@H](O)[C@@H](NC(=O)[C@@H](CC(C)C)NC)C(=O)N[C@@H](CC(N)=O)C(=O)N[C@H]6C(=O)N[C@H]4C(=O)N[C@H](C(=O)N[C@H](C(=O)O)c6cc(O)cc(O)c6-c6cc4ccc6O)[C@H](O)c4ccc(c(Cl)c4)O5)O[C@H](CO)[C@@H](O)[C@@H]3O)O[C@@H](C)[C@H]2O)cc1 [Compound 6]		accumulation of UDP-MurNAc-pentapeptide	
CCCCCCCNC(N)=Nc1ccc(CN[C@@]2(C)C[C@H](O[C@H]3[C@H](Oc4c5cc6cc4Oc4ccc(cc4Cl)[C@@H](O)[C@@H](NC(=O)[C@@H](CC(C)C)NC)C(=O)N[C@@H](CC(N)=O)C(=O)N[C@H]6C(=O)N[C@H]4C(=O)N[C@H](C(=O)N[C@H](C(=O)O)c6cc(O)cc(O)c6-c6cc4ccc6O)[C@H](O)c4ccc(c(Cl)c4)O5)O[C@H](CO)[C@@H](O)[C@@H]3O)O[C@@H](C)[C@H]2O)cc1 [Compound 5]		accumulation of UDP-MurNAc-pentapeptide	AC50 ([2]; n = 3): > 100 µM
CN[C@H](CC(C)C)C(=O)N[C@H]1C(=O)N[C@@H](CC(N)=O)C(=O)N[C@H]2C(=O)N[C@H]3C(=O)N[C@H](C(=O)N[C@H](C(=O)O)c4cc(O)cc(O)c4-c4cc3ccc4O)[C@H](O)c3ccc(c(Cl)c3)Oc3cc2cc(c3O[C@@H]2O[C@H](CO)[C@@H](O)[C@H](O)[C@H]2O[C@H]2C[C@](C)(NCc3ccc(N=C(N)NC/C=C(\C)CCC=C(C)C)cc3)[C@H](O)[C@H](C)O2)Oc2ccc(cc2Cl)[C@H]1O [Compound 14]		accumulation of UDP-MurNAc-pentapeptide	
CCCCCCCCCNC(N)=Nc1ccc(CN[C@@]2(C)C[C@H](O[C@H]3[C@H](Oc4c5cc6cc4Oc4ccc(cc4Cl)[C@@H](O)[C@@H](NC(=O)[C@@H](CC(C)C)NC)C(=O)N[C@@H](CC(N)=O)C(=O)N[C@H]6C(=O)N[C@H]4C(=O)N[C@H](C(=O)N[C@H](C(=O)O)c6cc(O)cc(O)c6-c6cc4ccc6O)[C@H](O)c4ccc(c(Cl)c4)O5)O[C@H](CO)[C@@H](O)[C@@H]3O)O[C@@H](C)[C@H]2O)cc1 [Compound 7]		accumulation of UDP-MurNAc-pentapeptide	
